Measurements from patent publication US8609695B2, “Methods of treating and/or suppressing insulin resistance” (Endorecherche, Inc., priority 1999, dated 2013).

Tests used:
[1] = test system: human endometrial adenocarcinoma Ishikawa cells; test: Alkaline phosphatase activity in Ishikawa cells (Example 11); assay type: cell-based; details: for Stimulation of alkaline phosphatase by tested compounds % of 1 nM E2 stimulation: Ishikawa cells, five days incubation, intrinsic estrogenic activity, hydrochloride
Method: The human Ishikawa cell line derived from a well differentiated endometrial adenocarcinoma was kindly provided by Dr. Erlio Gurpide, The Mount Sinai Medical Center, New York, N.Y. The Ishikawa cells were routinely maintained in Eagle's Minimum Essential Medium (MEM) containing 5% (vol/vol) FBS and supplemented with 100 U/ml penicillin, 100 μg/ml streptomycin, 0.1 mM Non-essential Amino Acids solution. Cells were plated in Falcon T75 flasks at a density of 1.5×10^6 cells at 37 C.
Twenty four hours before the start of an experiment, the medium of near confluent Ishikawa cells was replaced by fresh estrogen-free basal medium (EFBM) consisting of a 1:1 (v:v) mixture of phenol red-free Ham's F-12 and Dulbecco's Modified Eagle's Medium (DMEM) supplemented with 100 U/mL penicillin, 100 μg/mL Streptomycin, 2 mM glutamine, and 5% FBS treated twice with dextran-coated charcoal to remove endogenous steroids. Cells were then harvested by 0.1% pancreatin (Sigma) and 0.25 mM HEPES, resuspended in EFBM and plated in Falcon 96 well flat-bottomed microtiter plates at a density of 2.2×10^4 cells/well in a volume of 100 μl and allowed to adhere to the surface of the plates for 24 h. Thereafter, medium was replaced with fresh EFBM containing the indicated concentrations of compounds in a final volume of 200 μl. Cells were incubated for five days, with a medium change after 48 h.
At the end of the incubation period, microtiter plates were inverted and growth medium was decanted. The plates were rinsed with 200 μL by well of PBS (0.15M NaCl, 10 mM sodium phosphate, pH 7.4). PBS was then removed from the plates while carefully leaving some residual PBS, and the wash procedure was repeated once. The buffered saline was then decanted, and the inverted plates were blotted gently on a paper towel. Following replacement of the covers, the plates were placed at −80 C for 15 min followed by thawing at room temperature for 10 min. The plates were then placed on ice, and 50 μl of an ice-cold solution containing 5 mM p-nitrophenyl phosphate, 0.24 mM MgCl2, and 1 M diethanolamine (pH 9.8) was added. Plates were then warmed to room temperature, and the yellow color from the production of p-nitrophenyl was allowed to develop (8 min). Plates were monitored at 405 nm in an enzyme-linked immunosorbent assay plate reader (BIO-RAD, model 2550 EIA Reader).
Dose-response curves as well as IC50 values were calculated using a weighted iterative nonlinear squares regression.

OVX Sprague-Dawley Rat = test: 11-month combination treatment DHEA + EM-800, body weight (Example 2); assay type: in vivo; details: OVX rats, 11 months
Source text: 1.1 Test Compounds: • DHEA: Available from Steraloids Inc. Wilton, N.H. Lot: H137; • EM-800 is synthesized at the UCPO Department of Lab. of Mol. Endo., CHUL.
1.2 Vehicle • a) Gelatin: Lab-Grade, ACP Chemicals Inc., Montreal, Qc. Lot# F0195 • b) Ethanol: Commercial Alcohols Inc., Brampton, Ontario. Lot No. 11296 • c) Polyethylene Glycol-600 (PEG-600): Omega Chemical Company Inc., Lévis, Quebec. Lot#: 00-0117-EZ • d) Normal Saline: 0.9% Sodium Chloride irrigation USP. Abbott Laboratories Limited, St-Laurent, Qc. • e) Propylene Glycol (1, 2-Propanediol, PPG): Sigma Chemical Co., St-Louis, Mo. • g) Vehicle 1: 4% ETOH-4% PEG-600-1% gelatin-0.9% NaCl—H2O for Subcutaneous Injection. • h) Vehicle 2: 50% ETOH-50% PPG for Topical Application.
3.1 Perapartion of Vehicle and Test Articles • a) Preparation of EM-800: • EM-800 or both of them will be dissolved in ETOH:PEG-600 (1:1) with agitation on Fisher Scientific Stirring Hot Plate, then, 1% GNS will be added to the required volume. • b) Preparation of DHEA: • DHEA is dissolved in 50% ETOH, 50% PPG by agitation.
3.2 Animal Preparation and Treatments • Animals will be treated once daily as indicated on Item 6.1. DHEA, prepared in 50% ETOH, 50% PPG, will be percutaneously applied (P.C.) to corresponding animals once daily (I.D.) in a volume of 0.5 ml. […]

| Structure (SMILES) | IC50 ([1]; Homo sapiens, Ishikawa, 120 h, read-out: Inhibition of 1 nM E2 stimulation of alkaline phosphatase by tested compounds IC50) [nM] | Stimulation of alkaline phosphatase by tested compounds % of 1 nM E2 stimulation [1] | Stimulation of alkaline phosphatase by tested compounds % of 1 nM E2 stimulation ([1]; listed as EM-652•HCl) | inhibition of the OVX stimulation of body weight (OVX Sprague-Dawley Rat; DHEA 12.5 mg daily, EM-800 daily) [%] | Total weight (OVX Sprague-Dawley Rat; DHEA 12.5 mg/day/rat percutaneous, EM-800 100 μg/day/rat s.c.) [g] |
| --- | --- | --- | --- | --- | --- |
| CC1=C(c2ccc(O)cc2)[C@H](c2ccc(OCCN3CCCCC3)cc2)Oc2cc(O)ccc21.Cl [EM-652.HCl, (S)-(+)-7-hydroxy-3-(4′-hydroxyphenyl)-4-methyl-2-(4″-(2′″-piperidino-ethoxy)phenyl)-2H-1-benxopyran hydrochloride] | 1.52 ± 0.22 | do not show significant estrogenic activity | 1.88 ± 0.26 (22) % of 1 nM E2 stimulation | – | – |
| C[C@]12CC[C@H](O)CC1=CC[C@@H]1[C@@H]2CC[C@]2(C)C(=O)CC[C@@H]12 [DHEA, dehydroepiandrosterone] | – | – | – | 87 | 490.8 ± 24.1 |
